Experimental data taken from patent publication US9056111B1, “Selective efflux inhibitors and related pharmaceutical compositions and methods of treatment” (STC.UNM, priority 2011, dated 2015).
Converted amounts (≈) assume the structure as drawn. “And” between values parts separate entries of the source, which are not always exact repeats. Identical values can stand only once. Like-named read-outs stand apart in the source and are kept apart here.

Assays:
ABCB1 = ABCB1 (Homo sapiens, UniProt P08183); experiment: JC-1 efflux inhibition dose response, flow cytometry, Jurkat-DNR cells
ABCB1, sequence (P08183 whole entry): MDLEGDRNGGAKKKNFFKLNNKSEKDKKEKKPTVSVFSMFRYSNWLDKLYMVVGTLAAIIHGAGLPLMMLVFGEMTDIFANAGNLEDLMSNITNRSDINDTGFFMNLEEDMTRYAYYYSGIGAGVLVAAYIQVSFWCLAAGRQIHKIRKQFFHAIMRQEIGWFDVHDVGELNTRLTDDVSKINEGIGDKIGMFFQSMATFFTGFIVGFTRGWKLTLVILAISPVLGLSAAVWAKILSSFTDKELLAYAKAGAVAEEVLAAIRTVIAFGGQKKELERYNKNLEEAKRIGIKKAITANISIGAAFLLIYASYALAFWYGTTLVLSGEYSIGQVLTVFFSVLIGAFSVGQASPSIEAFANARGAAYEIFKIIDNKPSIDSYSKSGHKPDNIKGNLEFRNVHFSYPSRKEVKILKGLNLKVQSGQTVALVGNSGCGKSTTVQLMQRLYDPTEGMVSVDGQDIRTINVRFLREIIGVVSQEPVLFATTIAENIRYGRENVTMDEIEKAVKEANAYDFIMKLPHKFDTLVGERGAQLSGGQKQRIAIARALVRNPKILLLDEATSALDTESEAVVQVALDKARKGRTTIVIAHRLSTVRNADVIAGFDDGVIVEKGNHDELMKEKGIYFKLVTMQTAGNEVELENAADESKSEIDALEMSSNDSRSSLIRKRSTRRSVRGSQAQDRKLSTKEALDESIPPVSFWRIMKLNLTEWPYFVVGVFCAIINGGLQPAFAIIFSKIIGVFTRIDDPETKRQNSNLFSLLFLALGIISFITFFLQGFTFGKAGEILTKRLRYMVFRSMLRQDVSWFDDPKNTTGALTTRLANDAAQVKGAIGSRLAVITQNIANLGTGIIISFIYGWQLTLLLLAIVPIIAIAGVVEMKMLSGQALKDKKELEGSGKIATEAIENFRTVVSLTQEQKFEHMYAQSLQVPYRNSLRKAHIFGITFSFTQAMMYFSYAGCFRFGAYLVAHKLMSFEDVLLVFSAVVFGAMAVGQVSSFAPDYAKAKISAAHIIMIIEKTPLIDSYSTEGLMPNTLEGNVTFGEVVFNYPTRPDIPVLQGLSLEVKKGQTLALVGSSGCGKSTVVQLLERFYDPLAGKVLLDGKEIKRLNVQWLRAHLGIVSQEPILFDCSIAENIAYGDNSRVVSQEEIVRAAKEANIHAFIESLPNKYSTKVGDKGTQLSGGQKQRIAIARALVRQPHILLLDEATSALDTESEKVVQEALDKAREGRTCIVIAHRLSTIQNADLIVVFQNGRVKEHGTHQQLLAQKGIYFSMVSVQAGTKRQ
Outline: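 Jurkat-DNR cells pre-stained with 1 μM JC-1 were incubated with compound (final 50 μM to 69 nM, […]) at 1×10^6 cells/mL, rotated 30 min at 25° C. Retained JC-1 read by flow cytometry (488 nm excitation, 530/40 nm emission). Curves fitted to a four-parameter logistic.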

[1] = Aqueous stability in PBS at room temperature; format: physicochemical
Method: Aqueous stability was measured at room temperature (23° C.) in PBS (no antioxidants or other protectants and DMSO concentration below 0.1%). The stability of SID 88095709, determined as the percent of compound remaining after 48 hours, was 10%.^64Stability data are depicted as a graph showing the loss of compound with time over a 48 hour period with a minimum of 6 time points and provide the percent remaining compound at end of the 48 hours (FIG. 3, closed circles).
The stability data under these conditions overlain in the FIG. 3 and is also depicted as a graph showing the loss of compound with time over a 48 hour period with a minimum of 6 time points and provide the percent remaining compound at end of the 48 hours (FIG. 3, closed triangles). The addition of acetonitrile appears to have solubilized the compound and provided a more accurate reading of the stability, which is now 100% remaining after 48 hours.

Ig-MXP3 cells = experiment: Direct cytotoxicity (Toxic Dose 50) without chemotherapeutic; format: cell-based; conditions: Ig-MXP3 cells, inhibitor without chemotherapeutic
Jurkat-DNR cells = experiment: as above; conditions: Jurkat-DNR cells, inhibitor without chemotherapeutic
Method: Cells (ABCB1, Jurkat-DNR or ABCG2 Ig-MXP3) are incubated with the test compound (3 order of magnitude concentration range) over a 3-day and 7-day period in the presence of the inhibitor and chemotherapeutic (ABCB1, DNR or ABCG2 MTX), such that a cell concentration of at least 1×10^5 cells/mL is maintained. Cell viability is determined by trypan blue staining and enumeration under light microscopy. […] A chemoreversal index (Chemoreversal 50, CR50) is determined from the viability assessment. Using a similar approach, a direct cytotoxicity index (Toxic Dose 50, TD50) is determined by assessment of cell death of cells grown in media alone.
Cells (ABCB1, Jurkat-DNR or ABCG2 Ig-MXP3) were incubated with the test compound in a 3 order of magnitude concentration range over three and seven day periods in the presence of the inhibitor and chemotherapeutic (ABCB1, 100 nM DNR or ABCG2 30 nM MTX), such that a cell concentration of at least 1×10^5 cells mL^−1 was maintained. Cell viability was determined by trypan blue staining and enumeration under light microscopy. […] A chemoreversal index (Chemoreversal 50, CR50) was determined from the viability assessment. Using a similar approach, a direct cytotoxicity index (Toxic Dose 50, TD50) was determined by assessment of cell death of cells grown in media alone.

[2] = Flow cytometric kinetic solubility; format: physicochemical; conditions: kinetic from dmso stock
Description: Applying a flow cytometrickinetic solubility protocol,^65 we were also able to compare solubility across primary, secondary, and profiling buffer conditions in house. […] This is approximately three fold higher than reported above; however, our protocol uses 1% DMSO as compared to 0.1%. […] The presence of fetal bovine serum also affects compound availability and in the primary assay screening buffer (6.7% FBS in PBS, 1% DSMO) the precipitation was inhibited slightly with no particulate noted at 3 μg/mL. […] In general, we are confident that compound availability is sufficient for the concentration ranges discussed for this scaffold set in our described biological systems.

For `O=C(c1ccoc1)N1CCN(c2cc(-c3ccco3)nc3cc(-c4ccccc4)nn23)CC1` [Compound 1, (4-(5-(furan-2-yl)-2-phenylpyrazolo[1,5-a]pyrimidin-7-yl)piperazin-1-yl)(furan-3-yl)methanone], the EC50 (ABCB1) was 4.65 µM, the IC50 (ABCB1; IC50 ABCB1 (efflux inhibition of JC-1 substrate), Jurkat-DNR cells over-expressing ABCB1, averages of two to four replicates) was 4.7 µM and 4.65 µM and the “Aqueous stability, percent of compound remaining after 48 hours” value ([1]; PBS alone, 23° C., DMSO below 0.1%) was 10%. For the same molecule, the “Aqueous stability, percent remaining after 48 hours” value ([1]; PBS with acetonitrile (50% v/v final)) was 100%, the “TD50 ABCG2” value (Ig-MXP3 cells) was 18.30 µM and the “TD50 ABCG2” value (Ig-MXP3 cells; listed as SID 88095709) was 18.3 µM. For the same molecule, the “TD50 ABCB1” value (Jurkat-DNR cells) was 5.52 µM, the “TD50 ABCB1” value (Jurkat-DNR cells; listed as SID 88095709) was 5.5 µM and the solubility kinetic ([2]; PBS with 1% DMSO, pH 7.4, aqueous buffer, PBS alone, 1% DMSO, read-out: kinetic solubility) was 2 µg/mL (≈ 4.55 µM). For the same molecule, the solubility kinetic ([2]; growth media (RPMI with 10% FBS, 1% DMSO), plasma or biological fluid, read-out: kinetic solubility, no precipitate forming at) was ≥ 6 µg/mL and the solubility kinetic ([2]; primary assay screening buffer (6.7% FBS in PBS, 1% DMSO), plasma or biological fluid, read-out: kinetic solubility, no particulate noted at) was ≥ 3 µg/mL.
